Results from patent EP3494999A1, “PSMA LIGANDS FOR IMAGING AND ENDORADIOTHERAPY” (Technische Universität München, priority 2017, dated 2019).
Numbered stars: 1 amine (or outer) side, 2 acyl side, 3 side chain; on linkers, the order of the positions; unused ones are H or OH. Square brackets hold non-standard residues; d marks the D form. Side chains are listed from the residue outwards. Peptide text beside a SMILES is read from it. * marks the point of attachment. X2 = O=C(O)CC[C@H](NC(=O)N[C@@H](CCC(=O)N[C@H](CCCN*)C(=O)O)C(=O)O)C(=O)O; X1 = O=C(O)CC[C@H](NC(=O)N[C@@H](CCCCNC(=O)CCCCCCC(=O)*)C(=O)O)C(=O)O; DOTAGA = O=C(O)CN1CCN(CC(=O)O)CCN(C(CCC(=O)*)C(=O)O)CCN(CC(=O)O)CC1; dPhe(4-NH2) = Nc1ccc(C[C@@H](N)C(=O)O)cc1; Phe(4-NH2) = Nc1ccc(C[C@H](N)C(=O)O)cc1; d2Nal = N[C@H](Cc1ccc2ccccc2c1)C(=O)O; Suc = O=C(CCC(=O)[*:2])[*:1]

Tests used:
PSMA [1] = biological target: T1, PSMA (Homo sapiens, UniProt Q04609); test: Determination of IC50: competitive binding against ([125I]I-BA)KuE on cells; set-up: endogenous in cells; LNCaP is named only for the xenografts; conditions: natLu complexes; displacement of ([125I]I-BA)KuE, 60 min on ice, HBSS (1% BSA)
Experimental: The corresponding ^natLu^III-complexes were prepared from a 2 mM aqueous solution of the PSMA inhibitor with a 2.5 molar excess of LuCl3 (20 mM solution), heated to 95 °C for 30 min. After cooling, the ^natLu^III-chelate formation was confirmed using HPLC and MS. […] Calculated monoisotopic mass (C67H92N11O23 Lu) = 1,593.6 found: m/z = 1,595.0 [M+H]^+, 798.2 [M+2H]^2+. [^natLu]DOTAGA-(4-NH2)f-y-nal-k-KuE ([^natLu]PSMA-5): HPLC (10 to 60% B in 15 min.): tR = 9.0 min K' = 3.5. Calculated monoisotopic mass (C76H102N13O24 Lu) = 1,755.7 found: m/z = 1,756.4 [M+H]^+, 879.0 [M+2H]^2+. [^natLu]DOTAGA-(4-NH2)F-y-nal-k-KuE ([^natLu]PSMA-6): HPLC (10 to 60% B in 15 min.): tR = 9.1 min K' = 3.6. Calculated monoisotopic mass (C76H102N13O24 Lu) = 1,755.7 found: m/z = 1,756.6 [M+H]^+, 878.8 [M+2H]^2+. [^natLu]DOTAGA-y-nal-k(Suc-(HO-δ-orn-γ-EuE))-OH ([^natLu]PSMA-7): HPLC (10 to 60 % B in 15 min): tR = 7.8 min K' = 2.9. Calculated monoisotopic mass (C67H89N12O26 Lu): 1,652.5 found: m/z = 1,653.9 [M+H]^+. [^natLu]DOTAGA-(4-NH2)f-y-nal-k(Suc-(HO-δ-orn-γ-EuE))-OH ([^natLu]PSMA-8): HPLC (10 to 60 % B in 15 min): tR = 7.3 min K' = 2.7. Calculated monoisotopic mass (C67H99N14O27Lu): 1,814.6 found: m/z = 1,815.9 [M+H]^+, 908.3 [M+2H]^2+. [^natLu]DOTAGA-(4-NH2)F-y-nal-k(Suc-(HO-δ-orn-γ-EuE))-OH ([^natLu]PSMA-9): HPLC (10 to 60 % B in 15 min): tR = 7.2 min K' = 2.6. Calculated monoisotopic mass (C67H99N14O27Lu): 1,814.6 found: m/z = 1,815.6 [M+H]^+, 908.3 [M+2H]^2+. [^natLu]DOTAGA-y-nal-k(Glut-(l-f)-KuE) ([^natLu]PSMA-10): HPLC (25 to 55% B in 15 min): tR = 10.6 min K' = 4.9. Calculated monoisotopic mass (C73H94IN12O24Lu): 1,825.5 found: m/z = 1,826.5 [M+H]^+, 913.8 [M+2H]^2+. [^natLu]DOTAGA-(4-NH2)f-y-nal-k(Glut-(l-f)-KuE) ([^natLu]PSMA-11): HPLC (10 to 60% B in 20 min): tR = 9.7 min K' = 3.9. Calculated monoisotopic mass (C82H104IN14O25Lu): 1,986.6 found: m/z = 1,987.5 [M+H]^+, 994.3 [M+2H]^2+.
The reaction solution was incubated for 10 min at RT, loaded on a cartridge and rinsed with 10 mL water (C18 Sep Pak Plus cartridge, preconditioned with 10 mL MeOH and 10 mL water). After elution with 2.0 mL of a 1:1 mix (v/v) of EtOH/MeCN, the radioactive solution was evaporated to dryness under a gentle nitrogen stream and treated with 200 µL TFA for 30 min with subsequent evaporation of TFA.
After removal of the culture medium, the cells were treated once with 500 µL of HBSS (Hank's balanced salt solution, Biochrom, Berlin, Germany, with addition of 1% bovine serum albumin (BSA)) and left 15 min on ice for equilibration in 200 µL HBSS (1% BSA). […] All experiments were performed at least three times for each concentration. After 60 min incubation on ice, the experiment was terminated by removal of the medium and consecutive rinsing with 200 µL of HBSS. The media of both steps were combined in one fraction and represent the amount of free radioligand. Afterwards, the cells were lysed with 250 µL of 1.0 M NaOH and united with the 200 µL HBSS of the following wash step. Quantification of bound and free radioligand was accomplished in a γ-counter.

PSMA [2] = biological target: T1, PSMA; test: Internalization of radiolabeled PSMA inhibitors into cells (PMPA blockade); assay type: cell-based; set-up: endogenous in cells; LNCaP is named only for the xenografts; conditions: 177Lu-labeled inhibitors, 37°C; reference basis of the % not stated
Experimental: The ^177Lu-labeled compounds, for in vitro studies, were prepared as previously described (Sosabowski, J.K. and S.J. Mather, Conjugation of DOTA-like chelating agents to peptides and radiolabeling with trivalent metallic isotopes. Nat. Protocols, 2006. 1(2): p. 972-976) with minor modifications and used without further purification. In short, to a reaction volume of 10 µL 1.0 M NH4OAc buffer pH = 5.9 was added 0.75 to 1.0 nmol tracer (7.5 to 10 µL), 10 to 40 MBq ^177LuCl3 (Specific Activity (AS) > 3000 GBq/mg, 740 MBq/mL, 0.04 M HCl, ITG, Garching, Germany) and finally filled up to 100 µL with trace-pure Water (Merck, Darmstadt, Germany). The reaction mixture was heated for 30 min at 95°C and the radiochemical purity was determined using Radio-TLC.
[…] Each well was treated with either 25 µL of either DMEM-F12 (5% BSA) or a 100 µM PMPA solution for blockade. Next, 25 µL of the respective ^68Ga-and ^177Lu-labeled PSMA inhibitors (2.0 nM / 5.0 nM) was added and the cells incubated at 37°C for 5, 15, 30 and 60 min, respectively. The experiment was terminated by placing the 24-well plate on ice for 3 min and consecutive removal of the medium. Each well was rinsed with 250 µL HBSS and the fractions from these first two steps combined, representing the amount of free radioligand. Removal of surface bound activity was accomplished by incubation of the cells with 250 µL of ice-cold PMPA (10 µM in PBS) solution for 5 min and rinsed again with another 250 µL of ice-cold PBS. The internalized activity was determined by incubation of the cells in 250 µL 1.0 M NaOH and the combination with the fraction of a subsequent wash step with 250 µL 1.0 M NaOH. Each experiment (control and blockade) was performed in triplicate for each time point. Free, surface bound and internalized activity was quantified in a γ-counter.

[3] = assay type: physicochemical
Experimental: To a volume of 500 µL n-octanol, 0.5 to 1.0 MBq of the radiolabeled PSMA inhibitor in 500 µL PBS (pH = 7.4) was added and rigorously vortexted for 3 min (n = 6). For quantitative phase separation, the mixture was centrifuged at 6,000 g for 5 min (Biofuge 15, Heraus Sepatech, Osterode, Germany).

human serum albumin = human serum albumin (Homo sapiens, UniProt P02768); conditions: literature value of human serum albumin binding (Valko et al. or Yamazaki et al.); cited from earlier work
[4] = biological target: T2, human serum albumin (HSA) (Homo sapiens, UniProt P02768); assay type: in vitro ADME
T2 construct: purchased Daicel Chemical Industries, purchased from Chiral Technologies Europe (France)
From the text: The Fmoc-(9-fluorenylmethoxycarbonyl-) and all other protected amino acid analogs were purchased from Bachem (Bubendorf, Switzerland) or Iris Biotech (Marktredwitz, Germany). […] The tritylchloride polystyrene (TCP) resin was obtained from PepChem (Tubingen, Germany). Chematech (Dijon, France) delivered the chelator DOTAGA-anhydride. All necessary solvents and other organic reagents were purchased from either Alfa Aesar (Karlsruhe, Germany), Sigma-Aldrich (Munich, Germany) or VWR (Darmstadt, Germany). Solid phase synthesis of the peptides was carried out by manual operation using an Intelli-Mixer syringe shaker (Neolab, Heidelberg, Germany). […] Analysis of the peptides was performed by applying different gradients of 0.1% (v/v) trifluoroacetic acid (TFA) in H2O (solvent A) and 0.1% TFA (v/v) in acetonitrile (MeCN) (solvent B) with a constant flow of 1 mL/min (specific gradients are cited in the text). […] Human serum albumin (HSA) binding was determined using a Chiralpak HSA 50 x 3 mm 5µm Analytical Column connected to a Chiralpak HSA 10 x 3 mm 5µm Guard Cartridge (Daicel Chemical Industries) purchased from Chiral Technologies Europe (France). Nonlinear regression for the HSA binding was performed using OriginPro 2016G. Both retention times tR as well as the capacity factors K' are cited in the text. […] Radioactivity was detected through connection of the outlet of the UV-photometer to a Nal(TI) well-type scintillation counter from EG&G Ortec (Munich, Germany). […] ESI-mass spectra were acquired on an expression^L CMS mass spectrometer (Advion Ltd., Harlow, UK) and on a Varian 500-MS IT mass spectrometer (Agilent Technologies, Santa Clara, USA). For the HSA binding experiment a Chiralpak HSA 50 x 3 mm 5µm Analytical Column, (Daicel Chemical Industries, LTD) connected to a Chiralpak HSA 10 x 3 mm 5µm Guard Cartridge (Daicel Chemical Industries; Chiral Technologies Europe) was used.
The mobile phase was freshly prepared for each experiment and only used for one day. The column was kept at room temperature and each run was stopped after detection of the signal to reduce the acquisition time. All substances were dissolved in a 0.5mg/ml concentration in 50% 2-Propanol and 50% 50mM pH 6.9 ammonium acetate buffer. […] All nine reference substances were injected consecutively to establish a non-linear regression with OriginPro 2016G. […] Table 1: Reference substances used for the calibration of the HSA-column.

T1 sequence (Q04609 whole entry): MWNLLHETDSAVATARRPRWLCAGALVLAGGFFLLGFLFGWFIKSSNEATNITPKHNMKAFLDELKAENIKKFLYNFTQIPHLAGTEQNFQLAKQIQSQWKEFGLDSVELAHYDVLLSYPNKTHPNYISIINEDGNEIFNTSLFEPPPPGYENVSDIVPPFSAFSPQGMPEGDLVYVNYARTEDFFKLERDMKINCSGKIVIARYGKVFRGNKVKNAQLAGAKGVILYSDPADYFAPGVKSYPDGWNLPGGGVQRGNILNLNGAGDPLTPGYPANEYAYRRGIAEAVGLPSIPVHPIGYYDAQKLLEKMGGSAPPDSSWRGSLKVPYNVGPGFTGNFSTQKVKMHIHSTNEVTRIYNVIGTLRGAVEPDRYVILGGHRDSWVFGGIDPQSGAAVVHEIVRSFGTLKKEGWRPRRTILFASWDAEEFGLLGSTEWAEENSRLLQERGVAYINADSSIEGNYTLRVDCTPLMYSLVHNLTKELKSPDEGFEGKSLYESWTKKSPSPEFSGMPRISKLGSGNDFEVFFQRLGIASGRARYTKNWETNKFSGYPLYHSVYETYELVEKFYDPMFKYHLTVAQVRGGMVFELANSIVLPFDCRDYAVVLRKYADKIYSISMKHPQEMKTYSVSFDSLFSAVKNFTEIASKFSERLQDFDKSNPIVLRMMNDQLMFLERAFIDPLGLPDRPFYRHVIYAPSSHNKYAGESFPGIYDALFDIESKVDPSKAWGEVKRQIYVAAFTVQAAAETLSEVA
T2 sequence (P02768 25-609): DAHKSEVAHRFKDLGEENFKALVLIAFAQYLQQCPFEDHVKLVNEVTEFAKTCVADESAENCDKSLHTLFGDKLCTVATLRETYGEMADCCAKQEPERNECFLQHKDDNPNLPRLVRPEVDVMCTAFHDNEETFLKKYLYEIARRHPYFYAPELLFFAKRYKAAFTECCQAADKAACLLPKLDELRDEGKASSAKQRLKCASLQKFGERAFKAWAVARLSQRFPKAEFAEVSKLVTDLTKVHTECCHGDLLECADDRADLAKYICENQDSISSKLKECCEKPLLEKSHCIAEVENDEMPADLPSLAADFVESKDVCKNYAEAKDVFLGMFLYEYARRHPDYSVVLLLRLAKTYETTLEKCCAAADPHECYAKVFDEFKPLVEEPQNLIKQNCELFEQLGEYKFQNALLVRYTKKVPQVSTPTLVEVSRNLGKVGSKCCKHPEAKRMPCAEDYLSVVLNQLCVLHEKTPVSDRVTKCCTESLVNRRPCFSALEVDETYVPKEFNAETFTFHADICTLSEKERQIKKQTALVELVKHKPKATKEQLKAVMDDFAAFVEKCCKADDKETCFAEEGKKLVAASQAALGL
Sequence of human serum albumin (P02768 25-609): as above

## Nc1ccc(C[C@@H](NC(=O)CCC(C(=O)O)N2CCN(CC(=O)O)CCN(CC(=O)O)CCN(CC(=O)O)CC2)C(=O)N[C@H](Cc2ccc(O)cc2)C(=O)N[C@H](Cc2ccc3ccccc3c2)C(=O)N[C@H](CCCCNC(=O)CCCCCCC(=O)NCCCC[C@H](NC(=O)N[C@@H](CCC(=O)O)C(=O)O)C(=O)O)C(=O)O)cc1 (some centres unmarked) [[^nat/177Lu]PSMA-5, DOTAGA-(4-NH2)f-y-nal-k-KuE, metal not drawn] ({DOTAGA}-[dPhe(4-NH2)][dY][d2Nal][dK](X1)-OH)
PSMA [1]
  IC50: 5.8 ± 1 nM
PSMA [2]
  Internalization [%]: 111.3 ± 11.1%
[3]
  logP: -4.11 ± 0.06

## CCCN(CCC)S(=O)(=O)c1ccc(C(=O)O)cc1 [Probenecid]
Human serum albumin
  Lit. HSA%: 95.00%

## Nc1ccc(C[C@@H](NC(=O)CCC(C(=O)O)N2CCN(CC(=O)O)CCN(CC(=O)O)CCN(CC(=O)O)CC2)C(=O)N[C@H](Cc2ccc(O)cc2)C(=O)N[C@H](Cc2ccc3ccccc3c2)C(=O)N[C@H](CCCCNC(=O)CCC(=O)NCCC[C@@H](NC(=O)CC[C@H](NC(=O)N[C@@H](CCC(=O)O)C(=O)O)C(=O)O)C(=O)O)C(=O)O)cc1 (some centres unmarked) [[^nat/177Lu]PSMA-8, DOTAGA-(4-NH2)f-y-nal-k(Suc-(HO-δ-orn-γ-EuE))-OH, metal not drawn] ({DOTAGA}-[dPhe(4-NH2)][dY][d2Nal][dK]([Suc-X2])-OH)
PSMA [1]
  IC50: 2.5 ± 0.6 nM
PSMA [2]
  Internalization [%]: 207.3 ± 8.5%
[3]
  logP: -4.02 ± 0,25

## O=C(O)CC[C@H](NC(=O)N[C@@H](CCC(=O)N[C@H](CCCNC(=O)CCC(=O)NCCCC[C@@H](NC(=O)[C@@H](Cc1ccc2ccccc2c1)NC(=O)[C@@H](Cc1ccc(O)cc1)NC(=O)CCC(C(=O)O)N1CCN(CC(=O)O)CCN(CC(=O)O)CCN(CC(=O)O)CC1)C(=O)O)C(=O)O)C(=O)O)C(=O)O (some centres unmarked) [[^nat/177Lu]PSMA-7, DOTAGA-y-nal-k(Suc-(HO-δ-orn-γ-EuE))-OH, metal not drawn, reference compound]
PSMA [1]
  IC50: 3.1 ± 1 nM
PSMA [2]
  Internalization [%]: 216.2 ± 9.2%

## Nc1ccc(C[C@H](NC(=O)CCC(C(=O)O)N2CCN(CC(=O)O)CCN(CC(=O)O)CCN(CC(=O)O)CC2)C(=O)N[C@H](Cc2ccc(O)cc2)C(=O)N[C@H](Cc2ccc3ccccc3c2)C(=O)N[C@H](CCCCNC(=O)CCC(=O)NCCC[C@@H](NC(=O)CC[C@H](NC(=O)N[C@@H](CCC(=O)O)C(=O)O)C(=O)O)C(=O)O)C(=O)O)cc1 (some centres unmarked) [[^nat/177Lu]PSMA-9, DOTAGA-(4-NH2)F-y-nal-k(Suc-(HO-δ-orn-γ-EuE))-OH, metal not drawn] ({DOTAGA}-[Phe(4-NH2)][dY][d2Nal][dK]([Suc-X2])-OH)
PSMA [1]
  IC50: 2.5 ± 0.6 nM
[3]
  logP: -4.01 ± 0.11

## O=C(O)CC[C@H](NC(=O)N[C@@H](CCCCNC(=O)CCCCCCC(=O)NCCCC[C@@H](NC(=O)[C@@H](Cc1ccccc1)NC(=O)[C@@H](Cc1ccc(O)c(I)c1)NC(=O)CCC(C(=O)O)N1CCN(CC(=O)O)CCN(CC(=O)O)CCN(CC(=O)O)CC1)C(=O)O)C(=O)O)C(=O)O (stereo partly drawn) [[^nat/177Lu]PSMA-1, DOTAGA-(l-y)-f-k-KuE, metal not drawn, reference compound]
[4]
  HSA [%]: 78.6%
PSMA [2]
  Internalization [%]: 75.5 ± 1.6%
[3]
  logP: -4.12 ± 0.1
